Patent US20100143500A1, “Methods and Compositions for Inhibiting GSK-3 In Glial Cell Related Disorders” (THE OHIO STATE UNIVERSITY RESEARCH FOUNDATION, priority 2006, published 2010)

Legend:
[1] = test system: U87 glioma cell spheroids; experiment: U87 glioma spheroid invasion in collagen I matrix
Protocol: U87 control spheroid after 96 hours expansion in type I collagen with 20 mM NaCl.
Time course of U87 spheroid invasion, in the presence of increasing concentrations of LiCl. Measurements were taken daily over a period of four days.
Time course of spheroid expansion with 20 mM LiCl washed out from U87 spheres at 24 hour intervals. Subsequent expansion was monitored microscopically.
To investigate the role of GSK-3 in glioma invasion, experiments were carried out to examine the effects of lithium chloride (LiCl), a known inhibitor of GSK-3, on the invasion of U87 glioma cell spheroids embedded in a collagen I matrix.

[2] = target: T1, inositol monophosphatase (IMP) (Homo sapiens, UniProt P29218); conditions: cited from earlier work
T1 sequence (P29218 1-277): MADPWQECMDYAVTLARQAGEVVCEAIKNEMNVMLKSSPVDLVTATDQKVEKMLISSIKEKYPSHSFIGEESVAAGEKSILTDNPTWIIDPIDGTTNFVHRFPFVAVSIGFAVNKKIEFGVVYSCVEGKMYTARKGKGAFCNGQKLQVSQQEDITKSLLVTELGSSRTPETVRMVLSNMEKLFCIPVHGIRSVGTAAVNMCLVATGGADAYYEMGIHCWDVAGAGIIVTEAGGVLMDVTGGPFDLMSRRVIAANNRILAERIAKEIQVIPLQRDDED

[3] = test system: glioma cells; experiment: propidium iodide exclusion and metabolic cell viability assays; type: cell-based; conditions: under conditions that block cell motility
[4] = test system: three additional glioma cell lines and two human glioblastoma biopsies (X12 and X14)
Protocol: Spheroids from 6 glioma cell lines were grown in the presence of LiCl (10 mM or 20 mM).
Cell lines and chemicals. The U87 and U87ΔEGFR cell lines were provided by Dr. Webster Cavenee (Ludwig Institute for Cancer Research, La Jolla, Calif.). The human glioblastoma biopsies, X12 and X14 (from Dr. C. David James, Mayo Clinic, Rochester, Minn.), were maintained as flank tumors in nude mice as described (5). All cells were grown in DMEM with 10% FBS and 1% penicillin-streptomycin.

## CC(Oc1ccc(O)cc1)(P(=O)(O)O)P(=O)(O)O [L-690, 330]
[1]; concentrations as high as 400 μM
  effect on invasion: no effect on invasion
[2]
  potency as IMP inhibitor relative to lithium: 1000 fold

## O=C1NC(=O)C(c2ccccc2[N+](=O)[O-])=C1Nc1ccc(O)c(Cl)c1 [SB415286]
[3]
  cytotoxicity: Minimal cytotoxicity

## COc1ccc(CNC(=O)Nc2ncc([N+](=O)[O-])s2)cc1 [AR-A014418]
[3]
  cytotoxicity: Minimal cytotoxicity
[1]; U87 cells, 96 hours
  spheroid expansion as a percentage of control spheres: dose dependent decrease in spheroid expansion
[1]; U87 spheroids embedded in collagen I matrix
  invasion of glioma spheroids: dose-dependent blockade of invasion
[1]; after removal of inhibitor, assay up to 96 hours
  reversibility of the invasion blockade: reversible
[4]; X12 cells, 96 hours
  spheroid expansion as a percentage of control spheres: dose dependent decrease in spheroid expansion
[4]; panel of glioma cell lines, X12 and X14
  spheroid invasion in further glioma cell lines and biopsies: observed in the full panel of cell lines
